*1 amine or outer side, *2 acyl side, *3 side chain or, on linkers, in order; H or OH if unused. Where a SMILES comes first, the peptide text is derived from it. Side-chain parts run from the residue outwards. [ ]: non-standard residue; d: D form. The star is where a group is joined. NH(1-naphthyl) = c1ccc2c(N*)cccc2c1; NHPh(4-CF3) = FC(F)(F)c1ccc(N*)cc1; hCit = NC(=O)NCCCC[C@H](N)C(=O)O; NH(2-Me-phenyl) = Cc1ccccc1N*; 3Abz = Nc1cccc(C(=O)O)c1; Orn = NCCC[C@H](N)C(=O)O; βNA = c1ccc2cc(N*)ccc2c1; Boc = CC(C)(C)OC(=O)*; X1 = Clc1cccc(Cl)c1N*; X7 = Clc1cccc(N*)c1Cl; CO = O=C([*:1])[*:2]; X2 = CC(C)c1ccccc1N*
Molecular target: Gastrin/cholecystokinin type B receptor (Cavia porcellus)
Experiment: Binding affinity for Cholecystokinin type B receptor in guinea pig cortex by using [125I]BH-CCK-8 as radioligand

Compound	IC50 [µM]
Cc1ccccc1NC(=O)NCCC[C@H](NC(=O)[C@H](Cc1c[nH]c2ccccc12)NC(=O)OC(C)(C)C)C(=O)N[C@@H](CC(=O)O)C(=O)N[C@@H](Cc1ccccc1)C(N)=O [3-[2-[2-tert-Butoxycarbonylamino-3-(1H-indol-3-yl)-propionylamino]-5-(3-o-tolyl-ureido)-pentanoylamino]-N-(1-carbamoyl-2-phenyl-ethyl)-succinamic acid] (Boc-W[Orn]([CO-NH(2-Me-phenyl)])DF-NH2)	15
CC(C)(C)OC(=O)N[C@@H](Cc1c[nH]c2ccccc12)C(=O)N[C@@H](CCCCNC(=O)Nc1cccc2ccccc12)C(=O)N[C@@H](CC(=O)O)C(=O)N[C@@H](Cc1ccccc1)C(N)=O [3-[2-[2-tert-Butoxycarbonylamino-3-(1H-indol-3-yl)-propionylamino]-6-(3-naphthalen-1-yl-ureido)-hexanoylamino]-N-(1-carbamoyl-2-phenyl-ethyl)-succinamic acid] (Boc-WK([CO-NH(1-naphthyl)])DF-NH2)	11
CC(C)(C)OC(=O)N[C@@H](Cc1c[nH]c2ccccc12)C(=O)N[C@@H](CCCCNC(=O)Nc1ccc2ccccc2c1)C(=O)N[C@@H](CC(=O)O)C(=O)N[C@@H](Cc1ccccc1)C(N)=O [3-[2-[2-tert-Butoxycarbonylamino-3-(1H-indol-3-yl)-propionylamino]-6-(3-naphthalen-2-yl-ureido)-hexanoylamino]-N-(1-carbamoyl-2-phenyl-ethyl)-succinamic acid] (Boc-WK([CO-βNA])DF-NH2)	3.2
CC(C)(C)OC(=O)N[C@@H](Cc1c[nH]c2ccccc12)C(=O)N[C@@H](CCCCNC(=O)Nc1c(Cl)cccc1Cl)C(=O)N[C@@H](CC(=O)O)C(=O)N[C@@H](Cc1ccccc1)C(N)=O [3-{2-[2-tert-Butoxycarbonylamino-3-(1H-indol-3-yl)-propionylamino]-6-[3-(2,6-dichloro-phenyl)-ureido]-hexanoylamino}-N-(1-carbamoyl-2-phenyl-ethyl)-succinamic acid] (Boc-WK([CO-X1])DF-NH2)	7
CC(C)c1ccccc1NC(=O)NCCCC[C@H](NC(=O)[C@H](Cc1c[nH]c2ccccc12)NC(=O)OC(C)(C)C)C(=O)N[C@@H](CC(=O)O)C(=O)N[C@@H](Cc1ccccc1)C(N)=O [3-{2-[2-tert-Butoxycarbonylamino-3-(1H-indol-3-yl)-propionylamino]-6-[3-(2-isopropyl-phenyl)-ureido]-hexanoylamino}-N-(1-carbamoyl-2-phenyl-ethyl)-succinamic acid] (Boc-WK([CO-X2])DF-NH2)	5.7
CC(C)(C)OC(=O)N[C@@H](Cc1c[nH]c2ccccc12)C(=O)N[C@@H](CCCCNC(=O)Nc1ccc(C(F)(F)F)cc1)C(=O)N[C@@H](CC(=O)O)C(=O)N[C@@H](Cc1ccccc1)C(N)=O [3-{2-[2-tert-Butoxycarbonylamino-3-(1H-indol-3-yl)-propionylamino]-6-[3-(4-trifluoromethyl-phenyl)-ureido]-hexanoylamino}-N-(1-carbamoyl-2-phenyl-ethyl)-succinamic acid] (Boc-WK([CO-NHPh(4-CF3)])DF-NH2)	0.85
CC(C)(C)OC(=O)N[C@@H](Cc1c[nH]c2ccccc12)C(=O)N[C@@H](CCCCNC(N)=O)C(=O)N[C@@H](CC(=O)O)C(=O)N[C@@H](Cc1ccccc1)C(N)=O [3-{2-[2-tert-Butoxycarbonylamino-3-(1H-indol-3-yl)-propionylamino]-6-ureido-hexanoylamino}-N-(1-carbamoyl-2-phenyl-ethyl)-succinamic acid] (Boc-W[hCit]DF-NH2)	1

Molecular target: Gastrin/cholecystokinin type B receptor (Cavia porcellus)
Experiment: as above
Remark: another data set of the same source

IC50 [µM]	Compound
2.9	CC(C)(C)OC(=O)N[C@@H](Cc1c[nH]c2ccccc12)C(=O)N[C@@H](CCCC/N=C(\S)Nc1ccccc1Cl)C(=O)N[C@@H](CC(=O)O)C(=O)N[C@@H](Cc1ccccc1)C(N)=O

Molecular target: Gastrin/cholecystokinin type B receptor (Cavia porcellus)
Experiment: Binding affinity towards cholecystokinin type B receptor in guinea pig cortex by using [125I]BH-CCK-8 as radioligand

Compound	IC50 [µM]
COC(=O)c1cccc(NC(=O)NCCCC[C@H](NC(=O)[C@H](Cc2c[nH]c3ccccc23)NC(=O)OC(C)(C)C)C(=O)N[C@@H](CC(=O)O)C(=O)N[C@@H](Cc2ccccc2)C(N)=O)c1 (Boc-WK([CO-3Abz-OMe])DF-NH2)	1.4
CC(C)(C)OC(=O)N[C@@H](Cc1c[nH]c2ccccc12)C(=O)N[C@@H](CCCCNC(=O)Nc1cccc(Cl)c1Cl)C(=O)N[C@@H](CC(=O)O)C(=O)N[C@@H](Cc1ccccc1)C(N)=O [3-{2-[2-tert-Butoxycarbonylamino-3-(1H-indol-3-yl)-propionylamino]-6-[3-(2,3-dichloro-phenyl)-ureido]-hexanoylamino}-N-(1-carbamoyl-2-phenyl-ethyl)-succinamic acid] (Boc-WK([CO-X7])DF-NH2)	3
